Reference: patent US8278452B2, “Heterocyclic compounds and compositions as c-kit and PDGFR kinase inhibitors” (IRM LLC, priority 2008, dated 2012)

Test system: Mo7e cells which endogenously express c-kit
Test: Mo7e assay: inhibition of SCF dependent proliferation (MTT)
Type: cell-based
Details: Table 1; SCF stimulated Mo7e cells, 48 hours, MTT
Protocol: The compounds described herein are tested for inhibition of SCF dependent proliferation using Mo7e cells which endogenously express c-kit in a 96 well format. Two-fold serially diluted test compounds (Cmax=10 μM) are evaluated for their antiproliferative activity of Mo7e cells stimulated with human recombinant SCF. After 48 hours of incubation at 37° C., cell viability is measured by using a MTT colorimetric assay from Promega. IC50 values for compounds of the invention are quoted in table 1, supra.

| SMILES | IC50 |
| --- | --- |
| Cc1cc2c(cn1)cc(-c1cc(Nc3noc(C(O)C(C)C)n3)ccc1C)c(=O)n2C (stereo not shown) [Compound A64, 3-(5-(5-(1-hydroxy-2-methylpropyl)-1,2,4-oxadiazol-3-ylamino)-2-methylphenyl)-1,7-dimethyl-1,6-naphthyridin-2(1H)-one] | 118 nM |
| Cc1cc2c(cn1)cc(-c1cc(Nc3noc(C4(C)COC4)n3)ccc1C)c(=O)n2C [Compound A65, 1,7-dimethyl-3-(2-methyl-5-{[5-(3-methyloxetan-3-yl)-1,2,4-oxadiazol-3-yl]amino}phenyl)-1,2-dihydro-1,6-naphthyridin-2-one] | 413 nM |
| Cc1cc2c(cn1)cc(-c1cc(Nc3noc(C4CCO4)n3)ccc1C)c(=O)n2C (stereo not shown) [Compound A66, 1,7-dimethyl-3-(2-methyl-5-{[5-(oxetan-2-yl)-1,2,4-oxadiazol-3-yl]amino}phenyl)-1,2-dihydro-1,6-naphthyridin-2-one] | 143 nM |
| Cc1cc2c(cn1)cc(-c1cc(Nc3noc(C(C)CO)n3)ccc1C)c(=O)n2C (stereo not shown) [Compound A67, 3-(5-(5-(1-hydroxypropan-2-yl)-1,2,4-oxadiazol-3-ylamino)-2-methylphenyl)-1,7-dimethyl-1,6-naphthyridin-2(1H)-one] | 299 nM |
| Cc1cc2c(cn1)cc(-c1cc(Nc3noc(CC(C)C)n3)ccc1C)c(=O)n2C [Compound A68, 3-(5-(5-isobutyl-1,2,4-oxadiazol-3-ylamino)-2-methylphenyl)-1,7-dimethyl-1,6-naphthyridin-2(1H)-one] | 128 nM |
| Cc1cc2c(cn1)cc(-c1cc(Nc3noc(C4(CO)CC4)n3)ccc1C)c(=O)n2C [Compound A69, 3-(5-(5-(1-(hydroxymethyl)cyclopropyl)-1,2,4-oxadiazol-3-ylamino)-2-methylphenyl)-1,7-dimethyl-1,6-naphthyridin-2(1H)-one] | 148 nM |
| Cc1cc2c(cn1)cc(-c1cc(Nc3noc(-c4cnccn4)n3)ccc1C)c(=O)n2C [Compound A70, 1,7-dimethyl-3-(2-methyl-5-{[5-(pyrazin-2-yl)-1,2,4-oxadiazol-3-yl]amino}phenyl)-1,2-dihydro-1,6-naphthyridin-2-one] | 211 nM |
| Cc1cnc(-c2nc(Nc3ccc(C)c(-c4cc5cnc(C)cc5n(C)c4=O)c3)no2)cn1 [Compound A71, 1,7-dimethyl-3-(2-methyl-5-{[5-(5-methylpyrazin-2-yl)-1,2,4-oxadiazol-3-yl]amino}phenyl)-1,2-dihydro-1,6-naphthyridin-2-one] | 424 nM |
| Cc1cc2c(cn1)cc(-c1cc(Nc3noc(C4CC(=O)C4)n3)ccc1C)c(=O)n2C [Compound A72, 1,7-dimethyl-3-(2-methyl-5-{[5-(3-oxocyclobutyl)-1,2,4-oxadiazol-3-yl]amino}phenyl)-1,2-dihydro-1,6-naphthyridin-2-one] | 204 nM |
| Cc1cc2c(cn1)cc(-c1cc(Nc3noc(C4CCC(O)C4)n3)ccc1C)c(=O)n2C (stereo not shown) [Compound A73, 3-(5-(5-(3-hydroxycyclopentyl)-1,2,4-oxadiazol-3-ylamino)-2-methylphenyl)-1,7-dimethyl-1,6-naphthyridin-2(1H)-one] | 178 nM |
| CCOCc1nc(Nc2ccc(C)c(-c3cc4cnc(C)cc4n(C)c3=O)c2)no1 [Compound A74, 3-(5-{[5-(ethoxymethyl)-1,2,4-oxadiazol-3-yl]amino}-2-methylphenyl)-1,7-dimethyl-1,2-dihydro-1,6-naphthyridin-2-one] | 296 nM |
| Cc1cc2c(cn1)cc(-c1cc(Nc3noc([C@H]4CCCO4)n3)ccc1C)c(=O)n2C [Compound A75, 1,7-dimethyl-3-[2-methyl-5-({5-[(2R)-oxolan-2-yl]-1,2,4-oxadiazol-3-yl}amino)phenyl]-1,2-dihydro-1,6-naphthyridin-2-one] | 40 nM |
| CO[C@@H](C)c1nc(Nc2ccc(C)c(-c3cc4cnc(C)cc4n(C)c3=O)c2)no1 [Compound A76, (S)-3-(5-(5-(1-methoxyethyl)-1,2,4-oxadiazol-3-ylamino)-2-methylphenyl)-1,7-dimethyl-1,6-naphthyridin-2(1H)-one] | 142 nM |
| Cc1cc2c(cn1)cc(-c1cc(Nc3noc([C@@H]4CCCO4)n3)ccc1C)c(=O)n2C [Compound A77, (S)-1,7-dimethyl-3-(2-methyl-5-(5-(tetrahydrofuran-2-yl)-1,2,4-oxadiazol-3-ylamino)phenyl)-1,6-naphthyridin-2(1H)-one] | 27 nM |
| Cc1cc2c(cn1)cc(-c1cc(Nc3noc(C4CCOC4)n3)ccc1C)c(=O)n2C (stereo not shown) [Compound A78, 1,7-dimethyl-3-(2-methyl-5-{[5-(oxolan-3-yl)-1,2,4-oxadiazol-3-yl]amino}phenyl)-1,2-dihydro-1,6-naphthyridin-2-one] | 120 nM |
| Cc1cc2c(cn1)cc(-c1cc(Nc3noc(-c4ncccc4C)n3)ccc1C)c(=O)n2C [Compound A79, 1,7-dimethyl-3-(2-methyl-5-{[5-(3-methylpyridin-2-yl)-1,2,4-oxadiazol-3-yl]amino}phenyl)-1,2-dihydro-1,6-naphthyridin-2-one] | 94 nM |

| SMILES | IC50 |
| --- | --- |
| COc1cc(C)ccc1-c1nc(Nc2ccc(C)c(-c3cc4cnc(C)cc4n(C)c3=O)c2)no1 [Compound A80, 3-(5-{[5-(2-methoxy-4-methylphenyl)-1,2,4-oxadiazol-3-yl]amino}-2-methylphenyl)-1,7-dimethyl-1,2-dihydro-1,6-naphthyridin-2-one] | 338 nM |
| Cc1cc2c(cn1)cc(-c1cc(Nc3noc(-c4ccc(F)cc4Cl)n3)ccc1C)c(=O)n2C [Compound A81, 3-(5-{[5-(2-chloro-4-fluorophenyl)-1,2,4-oxadiazol-3-yl]amino}-2-methylphenyl)-1,7-dimethyl-1,2-dihydro-1,6-naphthyridin-2-one] | 237 nM |
| Cc1cc2c(cn1)cc(-c1cc(Nc3noc(-c4ccc(Cl)cc4Cl)n3)ccc1C)c(=O)n2C [Compound A82, 3-(5-{[5-(2,4-dichlorophenyl)-1,2,4-oxadiazol-3-yl]amino}-2-methylphenyl)-1,7-dimethyl-1,2-dihydro-1,6-naphthyridin-2-one] | 262 nM |
| Cc1cc2c(cn1)cc(-c1cc(Nc3noc(C4CC(O)C4)n3)ccc1C)c(=O)n2C (stereo not shown) [Compound A83, 3-(5-{[5-(3-hydroxycyclobutyl)-1,2,4-oxadiazol-3-yl]amino}-2-methylphenyl)-1,7-dimethyl-1,2-dihydro-1,6-naphthyridin-2-one] | 251 nM |
| Cc1cc2c(cn1)cc(-c1cc(Nc3noc(C4CC(C)(O)C4)n3)ccc1C)c(=O)n2C (stereo not shown) [Compound A84, 3-(5-{[5-(3-hydroxy-3-methylcyclobutyl)-1,2,4-oxadiazol-3-yl]amino}-2-methylphenyl)-1,7-dimethyl-1,2-dihydro-1,6-naphthyridin-2-one] | 176 nM |
| Cc1cc2c(cn1)cc(-c1cc(Nc3noc(C4CCCCO4)n3)ccc1C)c(=O)n2C (stereo not shown) [Compound A85, 1,7-dimethyl-3-(2-methyl-5-{[5-(oxan-2-yl)-1,2,4-oxadiazol-3-yl]amino}phenyl)-1,2-dihydro-1,6-naphthyridin-2-one] | 79 nM |
| Cc1ccc(Nc2noc(-c3ccccc3)n2)cc1-c1cc2c[n+]([O-])c(C)cc2n(C)c1=O [Compound A86, 1,7-dimethyl-3-{2-methyl-5-[(5-phenyl-1,2,4-oxadiazol-3-yl)amino]phenyl}-6-oxido-2-oxo-1,2-dihydro-1,6-naphthyridin-6-ium] | 216 nM |
| COc1ccc(-c2nc(Nc3ccc(C)c(-c4cc5cnc(C)cc5n(C)c4=O)c3)no2)cn1 [Compound A87, 3-(5-{[5-(6-methoxypyridin-3-yl)-1,2,4-oxadiazol-3-yl]amino}-2-methylphenyl)-1,7-dimethyl-1,2-dihydro-1,6-naphthyridin-2-one] | 95 nM |
| Cc1cc2c(cn1)cc(-c1cc(Nc3noc(-c4ccc(C(C)(F)F)nc4)n3)ccc1C)c(=O)n2C [Compound A88, 3-[5-({5-[6-(1,1-difluoroethyl)pyridin-3-yl]-1,2,4-oxadiazol-3-yl}amino)-2-methylphenyl]-1,7-dimethyl-1,2-dihydro-1,6-naphthyridin-2-one] | 259 nM |
| Cc1cc2c(cn1)cc(-c1cc(Nc3noc(-c4ccc(C(C)(F)F)cc4)n3)ccc1C)c(=O)n2C [Compound A89, 3-[5-({5-[4-(1,1-difluoroethyl)phenyl]-1,2,4-oxadiazol-3-yl}amino)-2-methylphenyl]-1,7-dimethyl-1,2-dihydro-1,6-naphthyridin-2-one] | 217 nM |
| Cc1cc2c(cn1)cc(-c1cc(Nc3noc(-c4ccc(CN)cc4)n3)ccc1C)c(=O)n2C [Compound A90, 3-[5-({5-[4-(aminomethyl)phenyl]-1,2,4-oxadiazol-3-yl}amino)-2-methylphenyl]-1,7-dimethyl-1,2-dihydro-1,6-naphthyridin-2-one] | 434 nM |
| Cc1cc2c(cn1)cc(-c1cc(Nc3noc(-c4cccnc4F)n3)ccc1C)c(=O)n2C [Compound A91, 3-(5-{[5-(2-fluoropyridin-3-yl)-1,2,4-oxadiazol-3-yl]amino}-2-methylphenyl)-1,7-dimethyl-1,2-dihydro-1,6-naphthyridin-2-one] | 244 nM |
| CC(=O)c1ccccc1-c1nc(Nc2ccc(C)c(-c3cc4cnc(C)cc4n(C)c3=O)c2)no1 [Compound A94, 3-(5-{[5-(2-acetylphenyl)-1,2,4-oxadiazol-3-yl]amino}-2-methylphenyl)-1,7-dimethyl-1,2-dihydro-1,6-naphthyridin-2-one] | 258 nM |
| CC(=O)c1ccc(-c2nc(Nc3ccc(C)c(-c4cc5cnc(C)cc5n(C)c4=O)c3)no2)cc1 [Compound A95, 3-(5-{[5-(4-acetylphenyl)-1,2,4-oxadiazol-3-yl]amino}-2-methylphenyl)-1,7-dimethyl-1,2-dihydro-1,6-naphthyridin-2-one] | 310 nM |
| Cc1cc2c(cn1)cc(-c1cc(Nc3noc(C(C)Oc4ccccc4)n3)ccc1C)c(=O)n2C (stereo not shown) [Compound A96, 1,7-dimethyl-3-(2-methyl-5-{[5-(1-phenoxyethyl)-1,2,4-oxadiazol-3-yl]amino}phenyl)-1,2-dihydro-1,6-naphthyridin-2-one] | 419 nM |
